The record followed here is PMC12250129, “Exploring the Therapeutic Potential of ^177Lu-PSMA-617 in a Mouse Model of Prostate Cancer Bone Metastases” (International Journal of Molecular Sciences, 2025).

One assay concerns the target T1, PSMA (Homo sapiens, UniProt Q04609).
T1 construct: host or cells: LNCaP human prostate cancer cells
Put plainly: Saturation binding assay on intact LNCaP cells. The note with it: 1 h at 4 °C. How it is done:
The competitive inhibition assay was performed in 10^5 LNCaP cells/well as previously described. The radioligand (^177Lu-PSMA-617) was added as a 0.75 nM solution to 10 different concentrations of non-labeled, ^natLu-labeled PSMA-617 (from 0.01 to 10,000 nM). After 1 h of incubation at 4 °C, the cells were washed with ice-cold PBS, and the cell-bound radioactivity was measured in a gamma counter (PerkinElmer, Waltham, MA, USA). The IC50 (half-maximal inhibitory concentration) value was determined using GraphPad Prism version 5.0 (Graph Pad Software, San Diego, CA, USA). Determination of the dissociation constants (Kd values) was performed by saturation binding assays using LNCaP cells. A total of 10^5 cells were seeded in 96-well plates (cells in 100 µL of the RPMI medium/well), allowing adhesion and growth overnight at 37 °C and 5% CO2. […] The Kd values were determined by plotting specific binding (total binding minus unspecific binding) against the molar concentration of the added radioligands followed by nonlinear regression analysis using the GraphPad Prism 5 software. The binding affinity (Ki) of ^177/natLu-PSMA-617 was calculated using the following formula as described previously: Ki = IC50/[1 + ([radioligand]/Kd)].

In a further assay the test system is PSMA-negative PC-3 cells. Put plainly: Cell surface binding and internalization, PC-3 cells. In kind it is cell-based, human. How it is done:
Cell surface binding and internalization experiments were performed with ^177Lu-PSMA-617 using PSMA-positive LNCaP cells and PSMA-negative PC-3 cells in order to determine if the uptake of ^177Lu-PSMA-617 was PSMA-specific. For this purpose, cells were seeded in 24-well plates (10^5 cells in 1 mL of the RPMI medium/well), allowing adhesion and growth overnight at 37 °C. After the removal of the supernatant, cells were washed once with PBS prior to the addition of the RPMI medium without supplements, followed by the addition of the radiolabeled ^177Lu-PSMA-617 (in MBq/nmol) to each well. The well plates were incubated at 37 °C for 1, 2, and 4 h, respectively. The cells were washed three times with ice-cold PBS to determine the total uptake of ^177Lu-PSMA-617. The internalized fraction of ^177Lu-PSMA-617 was determined in cells which were washed with ice-cold PBS, then incubated for 10 min with acidic stripping buffer (50 mM glycine, pH 2.8) followed by an additional washing step with ice-cold PBS. Cell samples were lysed by the addition of NaOH (1 N, 1 mL) to each well. The samples of the cell suspensions were measured in a γ-counter (PerkinElmer, Waltham, MA, USA).

Assay [1] relates to bone metastasis of LNCaP/Luc prostate cancer. Kind of assay: Therapeutic efficacy in mice with bone metastasis of LNCaP/Luc prostate cancer. Particulars: for median survival time: tail vein, day 0, control 26 days; for lifespan increase: vs control. It counts as in vivo, mouse. The protocol:
Therapeutic response monitoring was performed using bioluminescence imaging on days 3, 7, 15, and 30. […] The survival curves presented in Figure 6C further highlight the therapeutic effect. The median survival time for the control group (receiving normal saline) was 26 days, whereas mice treated with 1mCi (37 MBq) and 3mCi (111 MBq) of ^177Lu-PSMA-617 had median survival times of 34 days (p = 0.01) and 40 days (p = 0.02), respectively.
The mice were intratibially injected with LNCaP/Luc cells. After 45 days of tumor-implantation, the mice were assigned to three groups, including the saline control (n = 6), a low dose of ^177Lu-PSMA-617 (n = 8), and a high dose of ^177Lu-PSMA-617 (n = 9). The mice were administered via the tail vein with equivalent to 1mCi (37 MBq) and 3mCi (111 MBq) of ^177Lu-PSMA-617 on day 0. Body weight changes were measured during observation days. The death of mice was recorded for the survival curve by the Kaplan–Meier method. A humane endpoint was defined as a decrease in body weight of 20% or more compared with the body weight measured on the day of tumor inoculation. The survival rate of all groups was analyzed by the log-rank test, and p < 0.05 was considered significant difference. The median survival time was presented in efficacy studies. The median survival time was calculated as the smallest survival time for which the survivor function is less than or equal to 0.5. The therapeutic responses were monitored by bioluminescence imaging during observation days. The BNL/Luc tumor of mice was imaged and measured using the IVIS Imaging system and Living Imaging software (Xenogen, Alameda, CA, USA; available at https://www.perkinelmer.com) on days 3, 7, 15, and 30.

T1 sequence (Q04609 whole entry): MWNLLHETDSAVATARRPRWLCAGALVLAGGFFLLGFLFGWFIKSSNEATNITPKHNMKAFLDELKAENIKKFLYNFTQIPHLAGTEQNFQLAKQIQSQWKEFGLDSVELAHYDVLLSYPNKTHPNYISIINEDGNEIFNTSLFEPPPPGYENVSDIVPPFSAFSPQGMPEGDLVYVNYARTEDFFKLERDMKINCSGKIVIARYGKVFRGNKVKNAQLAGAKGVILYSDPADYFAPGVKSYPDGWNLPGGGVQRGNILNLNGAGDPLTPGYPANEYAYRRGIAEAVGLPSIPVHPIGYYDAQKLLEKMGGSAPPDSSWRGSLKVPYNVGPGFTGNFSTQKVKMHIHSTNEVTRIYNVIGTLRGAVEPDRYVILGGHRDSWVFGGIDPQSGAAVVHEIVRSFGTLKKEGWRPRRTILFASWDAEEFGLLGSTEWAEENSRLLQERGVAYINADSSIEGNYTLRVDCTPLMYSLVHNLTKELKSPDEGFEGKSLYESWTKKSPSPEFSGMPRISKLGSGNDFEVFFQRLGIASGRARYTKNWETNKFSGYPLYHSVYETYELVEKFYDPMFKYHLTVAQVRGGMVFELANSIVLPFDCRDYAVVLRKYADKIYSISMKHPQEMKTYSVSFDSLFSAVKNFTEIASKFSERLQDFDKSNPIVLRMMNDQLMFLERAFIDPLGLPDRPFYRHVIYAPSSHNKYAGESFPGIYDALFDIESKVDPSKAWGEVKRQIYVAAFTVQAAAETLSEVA

On to `O=C([O-])CN1CCN(CC(=O)[O-])CCN(CC(=O)NCC2CCC(C(=O)N[C@@H](Cc3ccc4ccccc4c3)C(=O)NCCCC[C@H](NC(=O)N[C@@H](CCC(=O)O)C(=O)O)C(=O)O)CC2)CCN(CC(=O)[O-])CC1.[177Lu+3]` (some centres unmarked) [^177Lu-PSMA-617], for which the Kd at PSMA was determined as 4.36 ± 0.664 nM. For the same molecule, in the assay with PSMA-negative PC-3 cells, the internalization is < 0.1 % IA/10^6 cells. In addition, the surface binding in the assay with PSMA-negative PC-3 cells is reported as ≤ 1.7 % IA/10^6 cells. Besides, the median survival time came out at 34 days in assay [1] (1mCi (37 MBq), p = 0.01) and 40 days in assay [1] (3mCi (111 MBq), p = 0.02). Moreover, the lifespan increase in assay [1] (1mCi (37 MBq)) is reported as 30.7%; in assay [1] (3mCi (111 MBq)), 53.8%. Also, the “bioluminescence signal intensity vs controls” value in assay [1] (days 3, 7, 15 and 30 after treatment) was “significantly lower signal intensities”.
